System: sebocytes
Experiment: In vitro sebocyte lipogenesis assay (Nile red lipid accumulation)
Assay type: cell-based, human

CCCCCC1=CC(=O)C=C(OC)C1=O [Primin, 2-methoxy-6-pentyl-1,4-benzoquinone]
Induction of lipogenesis (Primin concentration 0.3 μg/mL): 17.9% | Induction of lipogenesis (Primin concentration 1.0 μg/mL): 21.3% | Induction of lipogenesis (Primin concentration 3.0 μg/mL): 41.5% | Effect on lipogenesis in sebocytes (in words) (summary of Tables 1 and 2): has lipogenic activity
